Values quoted from earlier work in patent publication US12054485B2, “Substituted imidazoquinolines” (BIONTECH SE, priority 2017, dated 2024).

System: superficial basal cell carcinomas
Conditions: 5% cream (Aldara), topical; cited from earlier work

CC(C)Cn1cnc2c(N)nc3ccccc3c21 [Imiquimod, imiquimod]
5-year clearance of superficial basal cell carcinomas: approx. 80%
